# Test results published in patent US10947213B1 (Merck Patent GmbH, priority 2015, dated 2021).
# Biological target: T1, TLR7/NFKb HEK cells (Homo sapiens, UniProt Q9NYK1)
# T1 construct: expressed in transfected cells; host or cells: HEK cells (TLR7/NFKb reporter line)
# T1 sequence (Q9NYK1 27-1049): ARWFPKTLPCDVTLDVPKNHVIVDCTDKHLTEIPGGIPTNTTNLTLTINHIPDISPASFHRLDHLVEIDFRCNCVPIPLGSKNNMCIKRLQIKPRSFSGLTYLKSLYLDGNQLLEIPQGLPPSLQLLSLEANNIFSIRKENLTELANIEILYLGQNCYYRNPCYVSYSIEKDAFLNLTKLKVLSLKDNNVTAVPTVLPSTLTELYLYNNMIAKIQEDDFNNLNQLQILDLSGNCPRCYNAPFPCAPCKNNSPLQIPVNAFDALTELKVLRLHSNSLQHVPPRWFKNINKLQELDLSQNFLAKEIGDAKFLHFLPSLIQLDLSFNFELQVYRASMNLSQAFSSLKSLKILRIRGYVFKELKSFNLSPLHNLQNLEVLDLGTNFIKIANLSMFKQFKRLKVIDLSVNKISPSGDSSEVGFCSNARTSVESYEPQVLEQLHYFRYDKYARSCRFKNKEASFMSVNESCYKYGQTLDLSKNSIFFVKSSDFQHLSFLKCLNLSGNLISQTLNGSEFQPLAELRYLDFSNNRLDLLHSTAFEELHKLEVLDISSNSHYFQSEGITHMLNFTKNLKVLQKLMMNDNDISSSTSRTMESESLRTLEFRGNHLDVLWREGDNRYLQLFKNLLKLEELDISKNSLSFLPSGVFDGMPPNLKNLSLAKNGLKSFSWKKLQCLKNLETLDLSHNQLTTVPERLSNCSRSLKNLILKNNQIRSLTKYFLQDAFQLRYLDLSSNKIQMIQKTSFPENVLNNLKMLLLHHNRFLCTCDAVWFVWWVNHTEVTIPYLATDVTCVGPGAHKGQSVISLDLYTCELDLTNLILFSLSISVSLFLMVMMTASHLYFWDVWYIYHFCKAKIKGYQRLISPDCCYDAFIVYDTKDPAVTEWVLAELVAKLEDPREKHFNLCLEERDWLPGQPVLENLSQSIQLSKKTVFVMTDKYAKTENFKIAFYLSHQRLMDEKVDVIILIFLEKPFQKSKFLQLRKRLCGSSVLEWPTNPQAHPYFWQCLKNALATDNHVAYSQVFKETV
# Assay: HEK Cell Assay (TLR7/NFKb reporter, Steady-Glo luciferase readout)
# Format: cell-based
# Conditions: 30 min compound preincubation, then R*48 agonist for 5 hours, read-out: Potency
# Experimental: Example 142: HEK Cell Assay
# Into 384 CulturePlates (Corning 3707) was placed 5000 c/w of TLR7/NFKb HEK cells in 30 uL DMEM without Phenil red (gibco #31053) and 10% i.a. FCS and 2 mM L-ZGLutamin. The cells were incubated for 24 h at 37° C., 10% carbon dioxide and 90% relative humidity. 3 uL of controls, standards, and compounds were dispensed into wells, incubated for 30 min then 3 uL of R*48 agonist in 20 mM Hepes was added. After incubation for 5 hours, they were allowed to stand at room temperature for 15 min. To this was added 10 uL of Steady-Glo substrate reagent and shake assay plate for 5 min at 1500 rpm. The assay plate was allowed to sit for 30 min at room temperature and then the plate was read on EnVision.
row,SMILES,IC50 [nM]
1,"CC1(C)C[C@@H](NC(=O)CN2CCOCC2)CN(c2ccc(C#N)c3nccnc23)C1 [Compound 214, N-[(3R)-1-(8-cyanoquinoxalin-5-yl)-5,5-dimethylpiperidin-3-yl]-2-(morpholin-4-yl)acetamide]",1000 to 10000
2,"CN(C)CC(=O)N[C@H]1C[C@@H](C(F)(F)F)CN(c2ccc(C#N)c3ncccc23)C1 (racemic) [Compound 426, cis-N-[1-(8-Cyano-quinolin-5-yl)-5-trifluoromethyl-piperidin-3-yl]-2-dimethylamino-acetamide]",< 1000
3,"C[C@H]1C[C@@H](NC(=O)C(N)C(F)(F)F)CN(c2ccc(C(N)=O)c3ncccc23)C1 (single isomer, unassigned) [Compound 185]",> 10000
4,"CC(C)[C@@H](O)C(=O)N[C@H]1CN(c2ccc(C#N)c3nccnc23)CC(C)(C)C1 [Compound 213, (2R)—N-[(3R)-1-(8-cyanoquinoxalin-5-yl)-5,5-dimethylpiperidin-3-yl]-2-hydroxy-3-methylbutanamide]",< 1000
5,"N#Cc1ccc(N2C[C@@H](NC(=O)CN3CCOCC3)C[C@@H](C(F)(F)F)C2)c2nccnc12 (relative stereo) [Compound 228, cis-N-[1-(8-cyanoquinoxalin-5-yl)-5-(trifluoromethyl)piperidin-3-yl]-2-(morpholin-4-yl)acetamide]",1000 to 10000
6,"C[C@H]1C[C@@H](NC(=O)[C@H](N)CO)CN(c2ccnc3nccnc23)C1 [Compound 107, (2R)-2-amino-3-hydroxy-N-[(3R,5S)-5-methyl-1-[pyrido[2,3-b]pyrazin-8-yl]piperidin-3-yl]propanamide]",> 10000
7,"CCNC(=O)C1CCN(C[C@H]2CN(c3ccnc4nccnc34)C[C@@H](C)O2)CC1 [Compound 62, N-ethyl-1-(((2S,6R)-6-methyl-4-(pyrido[2,3-b]pyrazin-8-yl)morpholin-2-yl)methyl)piperidine-4-carboxamide]",1000 to 10000
8,"C[C@H]1C[C@@H](NC(=O)CNC(C)(C)C)CN(c2ccc(C#N)c3nccnc23)C1 [Compound 142, 2-(tert-butylamino)-N-[(3R,5S)-1-(8-cyanoquinoxalin-5-yl)-5-methylpiperidin-3-yl]acetamide]",< 1000
9,"C[C@H]1C[C@@H](NC(=O)CO)CN(c2ccnc3ccccc23)C1 [Compound 14, 2-hydroxy-N-((3R,5S)-5-methyl-1-(quinolin-4-yl)piperidin-3-yl)acetamide]",> 10000
10,"C[C@@H]1CN(c2ccnc3nccnc23)C[C@H](C)O1 [Compound 43, (2S,6R)-2,6-dimethyl-4-(pyrido[2,3-b]pyrazin-8-yl)morpholine]",> 10000
11,"CC(C)[C@H](O)C(=O)N[C@@H]1C[C@H](C)CN(c2ccc(C(F)(F)F)c3ncccc23)C1 [Compound 194, (2S)-2-hydroxy-3-methyl-N-[(3R,5S)-5-methyl-1-[8-(trifluoromethyl)quinolin-5-yl]piperidin-3-yl]butanamide]",< 1000
12,"C[C@H]1C[C@@H](NC(=O)[C@@H](N)Cc2cccnc2)CN(c2ccnc3nccnc23)C1 [Compound 118, (2S)-2-amino-N-[(3R,5S)-5-methyl-1-[pyrido[2,3-b]pyrazin-8-yl]piperidin-3-yl]-3-(pyridin-3-yl)propanamide]",1000 to 10000
13,"C[C@H]1C[C@@H](NC(=O)CO)CN(c2ccnc3nccnc23)C1 [Compound 15, 2-hydroxy-N-((3R,5S)-5-methyl-1-(pyrido[2,3-b]pyrazin-8-yl)piperidin-3-yl)acetamide]",> 10000
14,"N#Cc1ccc(N2C[C@@H](N)C[C@@H](C(F)(F)F)C2)c2cccnc12 (relative stereo) [Compound 71, cis-5-(3-Amino-5-trifluoromethyl-piperidin-1-yl)-quinoline-8-carbonitrile]",< 1000

# More lines, now with the values ahead:
row,IC50 [nM],SMILES
1,< 1000,C[C@H]1C[C@@H](NC(=O)[C@@H](N)CO)CN(c2ccc(C(F)(F)F)c3ncccc23)C1 [Compound 476]
2,< 1000,"C[C@H]1C[C@@H](NC(=O)C(O)C2CC2)CN(c2ccc(C(F)(F)F)c3ncccc23)C1 (single isomer, unassigned) [Compound 520]"
3,> 10000,"O=C(CN1CCOCC1)N[C@H]1C[C@@H](C2CC2)CN(c2ccc(F)c3ncccc23)C1 (racemic) [Compound 367, cis-N-[5-cyclopropyl-1-(8-fluoroquinolin-5-yl)piperidin-3-yl]-2-(morpholin-4-yl)acetamide]"
4,1000 to 10000,"C[C@H]1C[C@@H](NC(=O)C2CC(F)(F)C2)CN(c2ccc(C(F)F)c3nccnc23)C1 [Compound 329, N-[(3R,5S)-1-[8-(difluoromethyl)quinoxalin-5-yl]-5-methylpiperidin-3-yl]-3,3-difluorocyclobutane-1-carboxamide]"
5,< 1000,"CC(C)[C@H](O)C(=O)NC1CC(C(F)(F)F)CN(c2ccc(C#N)c3ncccc23)C1 (single isomer, unassigned) [Compound 430]"
6,> 10000,"O=C(NCC1CCN(c2ccnc3nccnc23)CC1)c1ccccn1 [Compound 392, Pyridine-2-carboxylic acid (1-pyrido[2,3-b]pyrazin-8-yl-piperidin-4-ylmethyl)-amide]"
7,< 1000,"C[C@H]1C[C@@H](NC(=O)CC2(C)CCN(C)CC2)CN(c2ccc(C(F)(F)F)c3ncccc23)C1 [Compound 245, 2-(1,4-dimethylpiperidin-4-yl)-N-[(3R,5S)-5-methyl-1-[8-(trifluoromethyl)quinolin-5-yl]piperidin-3-yl]acetamide]"
8,< 1000,"CN1CCN(CCNC(=O)C2CCN(c3ccc(C#N)c4ncccc34)CC2)CC1 [Compound 421, 1-(8-Cyano-quinolin-5-yl)-piperidine-4-carboxylic Acid [2-(4-methyl-piperazin-1-yl)-ethyl]-amide]"
9,1000 to 10000,"CC(C(=O)NC1CN(c2ccc(C#N)c3nccnc23)CC(F)(F)C1)N1CCC1 (single isomer, unassigned) [Compound 508]"
10,1000 to 10000,"CC(C)(C)NCC(=O)NCC1CCN(c2ccnc3nccnc23)CC1 [Compound 406, 2-tert-Butylamino-N-(1-pyrido[2,3-b]pyrazin-8-yl-piperidin-4-ylmethyl)-acetamide]"
11,< 1000,"C[C@H]1C[C@@H](NC(=O)CC2CNC2)CN(c2ccc(C#N)c3nccnc23)C1 [Compound 274, 2-(azetidin-3-yl)-N-[(3R,5S)-1-(8-cyanoquinoxalin-5-yl)-5-methylpiperidin-3-yl]acetamide]"
12,1000 to 10000,"CC(O)C(=O)N[C@@H]1C[C@H](C)CN(c2ccc(C(F)(F)F)c3nccnc23)C1 (stereo partly drawn) [Compound 292, 2-hydroxy-N-[(3R,5S)-5-methyl-1-[8-(trifluoromethyl)quinoxalin-5-yl]piperidin-3-yl]propanamide]"
13,< 1000,"CCN1CCC(NC(=O)C2CC(C)CN(c3ccc(C#N)c4nccnc34)C2)CC1 (centres unmarked) [Compound 540, 1-(8-Cyano-quinoxalin-5-yl)-5-methyl-piperidine-3-carboxylic acid (1-ethyl-piperidin-4-yl)-amide]"
14,< 1000,"N[C@H]1C[C@@H](C2CC2)CN(c2ccc(C(F)F)c3ncccc23)C1 (relative stereo) [Compound 332, cis-5-cyclopropyl-1-[8-(difluoromethyl)quinolin-5-yl]piperidin-3-amine]"
15,1000 to 10000,"C[C@H]1C[C@@H](NC(=O)NCC2CC(F)(F)C2)CN(c2ccc(C(F)(F)F)c3ncccc23)C1 [Compound 582, 1-(3,3-Difluoro-cyclobutylmethyl)-3-[(3R,5S)-5-methyl-1-(8-trifluoromethyl-quinolin-5-yl)-piperidin-3-yl]-urea]"
16,< 1000,"CC(C(=O)N[C@@H]1C[C@H](C)CN(c2ccc(C(F)(F)F)c3nccnc23)C1)N1CCC(O)CC1 (single isomer, unassigned) [Compound 371]"
17,< 1000,"COc1ccc(N2C[C@@H](N)C[C@@H](C3CC3)C2)c2cccnc12 (relative stereo) [Compound 334, cis-5-cyclopropyl-1-(8-methoxyquinolin-5-yl)piperidin-3-amine]"
18,< 1000,"C[C@H]1C[C@@H](NC(=O)C2CCN(C)C2)CN(c2ccc(C(F)(F)F)c3ncccc23)C1 (stereo partly drawn) [Compound 248, 1-methyl-N-[(3R,5S)-5-methyl-1-[8-(trifluoromethyl)quinolin-5-yl]piperidin-3-yl]pyrrolidine-3-carboxamide]"
